Read-outs that look alike come from different tables or passages of the source.
Target: T1, human PAH with the R408W mutation (Homo sapiens, UniProt P00439, R408W)
T1 construct: expressed in transfected cells
T1 sequence (P00439 1-452 R408W): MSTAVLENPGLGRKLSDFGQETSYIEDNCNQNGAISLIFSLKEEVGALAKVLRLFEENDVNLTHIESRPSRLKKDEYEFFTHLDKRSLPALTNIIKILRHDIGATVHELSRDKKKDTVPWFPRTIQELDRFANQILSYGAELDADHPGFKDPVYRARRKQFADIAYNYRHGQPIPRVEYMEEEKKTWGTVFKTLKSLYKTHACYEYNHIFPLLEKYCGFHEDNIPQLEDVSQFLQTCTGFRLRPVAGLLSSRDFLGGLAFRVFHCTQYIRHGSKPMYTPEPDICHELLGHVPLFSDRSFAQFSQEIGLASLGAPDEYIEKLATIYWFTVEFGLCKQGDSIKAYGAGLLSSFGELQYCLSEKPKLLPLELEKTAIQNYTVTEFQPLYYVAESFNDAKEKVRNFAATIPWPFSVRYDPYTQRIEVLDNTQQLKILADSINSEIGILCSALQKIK
Assay: Cell Based Phenylalanine Flux Assay;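 also: Ten-point dose curve from 2-fold serial dilutions, run in duplicate at 0.5% DMSO final, tracer step used 20 µM sepiapterin and 800 µM labeled phenylalanine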
Details: A375 cells expressing human R408W PAH, 13C-Tyrosine by LC-MS, average where tested multiple times, read-out: AC50

[1] = 24 hrs with compound, then sepiapterin and 13C9,15N-Phenylalanine for 4 hours

AC50 (24 hrs compound incubation)	AC50 [1]	SMILES
1 to 5 µM		O=C(c1nnc(-c2cnccn2)o1)N1CCc2[nH]cnc2[C@@H]1c1cc2c(Cl)cccn2n1 [Example 1333, (R)-(4-(4-chloropyrazolo [1,5-a]pyridin-2-yl)-6,7-dihydro-1H-imidazo[4,5-c]pyridin-5(4H)-yl)(5-(pyrazin-2-yl)-1,3,4-oxadiazol-2-yl)methanone]
0.5 to 1 µM		O=C(c1nnc(-c2cccnc2)o1)N1CCc2[nH]cnc2[C@H]1c1cc2cccc(C(F)(F)F)n2n1 [Example 1340, (S)-(5-(pyridin-3-yl)-1,3,4-oxadiazol-2-yl)(4-(7-(trifluoromethyl)pyrazolo [1,5-a]pyridin-2-yl)-6,7-dihydro-1H-imidazo[4,5-c]pyridin-5(4H)-yl)methanone]
1 to 5 µM		O=C(c1nnc(-c2cccnc2)o1)N1CCc2[nH]cnc2[C@@H]1c1cc2cccc(C(F)(F)F)n2n1 [Example 1341, (R)-(5-(pyridin-3-yl)-1,3,4-oxadiazol-2-yl)(4-(7-(trifluoromethyl)pyrazolo [1,5-a]pyridin-2-yl)-6,7-dihydro-1H-imidazo[4,5-c]pyridin-5(4H)-yl)methanone]
0.5 to 1 µM		O=C(c1nnc(-c2cccnc2)o1)N1CCc2[nH]cnc2[C@H]1c1cc2ccccn2n1 [Example 1346, (S)-(4-(pyrazolo[1,5-a]pyridin-2-yl)-6,7-dihydro-1H-imidazo[4,5-c]pyridin-5(4H)-yl)(5-(pyridin-3-yl)-1,3,4-oxadiazol-2-yl)methanone]
> 5 µM		Cc1c(-c2nnc(C(=O)N3CCc4[nH]cnc4[C@@H]3c3cc4c(C(F)F)cccn4n3)o2)cnn1C [Example 1349]
< 0.5 µM		CC(C)(F)c1nnc(C(=O)N2CCc3[nH]cnc3[C@H]2c2cc3c(C(F)F)cccn3n2)o1 [Example 1350, (S)-(4-(4-(difluoromethyl)pyrazolo[1,5-a]pyridin-2-yl)-6,7-dihydro-1H-imidazo [4,5-c]pyridin-5(4H)-yl)(5-(2-fluoropropan-2-yl)-1,3,4-oxadiazol-2-yl)methanone]
> 5 µM		Cn1ccc(-c2nnc(C(=O)N3CCc4[nH]cnc4[C@@H]3c3cc4c(C(F)F)cccn4n3)o2)n1 [Example 1353, (R)-(4-(4-(difluoromethyl)pyrazolo[1,5-a]pyridin-2-yl)-6,7-dihydro-1H-imidazo [4,5-c]pyridin-5(4H)-yl)(5-(1-methyl-1H-pyrazol-3-yl)-1,3,4-oxadiazol-2-yl)methanone]
< 0.5 µM		Cc1ncccc1-c1nnc(C(=O)N2CCc3[nH]cnc3[C@H]2c2cc3c(Cl)cccn3n2)o1 [Example 1356, (S)-(4-(4-chloropyrazolo [1,5-a]pyridin-2-yl)-6,7-dihydro-1H-imidazo[4,5-c]pyridin-5(4H)-yl)(5-(2-methylpyridin-3-yl)-1,3,4-oxadiazol-2-yl)methanone]
> 5 µM		Cc1ncccc1-c1nnc(C(=O)N2CCc3[nH]cnc3[C@@H]2c2cc3c(Cl)cccn3n2)o1 [Example 1357, (R)-(4-(4-chloropyrazolo [1,5-a]pyridin-2-yl)-6,7-dihydro-1H-imidazo[4,5-c]pyridin-5(4H)-yl)(5-(2-methylpyridin-3-yl)-1,3,4-oxadiazol-2-yl)methanone]
0.5 to 1 µM		O=C(c1nnc(-c2cnccn2)o1)N1CCc2[nH]cnc2[C@H]1c1cc2cccc(C(F)(F)F)n2n1 [Example 1361, (S)-(5-(pyrazin-2-yl)-1,3,4-oxadiazol-2-yl)(4-(7-(trifluoromethyl)pyrazolo [1,5-a]pyridin-2-yl)-6,7-dihydro-1H-imidazo[4,5-c]pyridin-5(4H)-yl)methanone]
0.5 to 1 µM		O=C(c1nnc(-c2cnccn2)o1)N1CCc2[nH]cnc2[C@H]1c1cc2ccccn2n1 [Example 1362, (S)-(5-(pyrazin-2-yl)-1,3,4-oxadiazol-2-yl)(4-(pyrazolo[1,5-a]pyridin-2-yl)-6,7-dihydro-1H-imidazo[4,5-c]pyridin-5(4H)-yl)methanone]
< 0.5 µM		Cc1ncccc1-c1nnc(C(=O)N2CCc3[nH]cnc3[C@H]2c2cc3ccccn3n2)o1 [Example 1364]
> 5 µM		Cc1ncccc1-c1nnc(C(=O)N2CCc3[nH]cnc3[C@@H]2c2cc3ccccn3n2)o1 [Example 1365, (R)-(5-(2-methylpyridin-3-yl)-1,3,4-oxadiazol-2-yl)(4-(pyrazolo[1,5-a]pyridin-2-yl)-6,7-dihydro-1H-imidazo[4,5-c]pyridin-5(4H)-yl)methanone]
1 to 5 µM		Cc1c(-c2nnc(C(=O)N3CCc4[nH]cnc4[C@@H]3c3cc4cccc(C(F)F)n4n3)o2)cnn1C [Example 1367, (R)-(4-(7-(difluoromethyl)pyrazolo[1,5-a]pyridin-2-yl)-6,7-dihydro-1H-imidazo[4,5-c]pyridin-5(4H)-yl)(5-(1,5-dimethyl-1H-pyrazol-4-yl)-1,3,4-oxadiazol-2-yl)methanone]
< 0.5 µM		Cn1nc(C(F)F)cc1C(=O)N1CCc2[nH]cnc2[C@H]1c1cc2c(Cl)cccn2n1 [Example 1368, (S)-(4-(4-chloropyrazolo [1,5-a]pyridin-2-yl)-6,7-dihydro-1H-imidazo[4,5-c]pyridin-5(4H)-yl)(3-(difluoromethyl)-1-methyl-1H-pyrazol-5-yl)methanone]
< 0.5 µM		Cn1nc(C(F)F)cc1C(=O)N1CCc2[nH]cnc2[C@H]1c1cc2c(C(F)F)cccn2n1 [Example 1372, (S)-(3-(difluoromethyl)-1-methyl-1H-pyrazol-5-yl)(4-(4-(difluoromethyl)pyrazolo [1,5-a]pyridin-2-yl)-6,7-dihydro-1H-imidazo[4,5-c]pyridin-5(4H)-yl)methanone]
1 to 5 µM		Cn1nc(C(F)F)cc1C(=O)N1CCc2[nH]cnc2[C@@H]1c1cc2c(C(F)F)cccn2n1 [Example 1373, (R)-(3-(difluoromethyl)-1-methyl-1H-pyrazol-5-yl)(4-(4-(difluoromethyl)pyrazolo [1,5-a]pyridin-2-yl)-6,7-dihydro-1H-imidazo[4,5-c]pyridin-5(4H)-yl)methanone]
> 5 µM		O=C(c1nnc(-c2ccn(C(F)F)n2)o1)N1CCc2[nH]cnc2[C@@H]1c1cc2c(C(F)F)cccn2n1 [Example 1376, (R)-(5-(1-(difluoromethyl)-1H-pyrazol-3-yl)-1,3,4-oxadiazol-2-yl)(4-(4-(difluoromethyl)pyrazolo[1,5-a]pyridin-2-yl)-6,7-dihydro-1H-imidazo[4,5-c]pyridin-5(4H)-yl)methanone]
< 0.5 µM		Cc1cccc(-c2nnc(C(=O)N3CCc4[nH]cnc4[C@H]3c3cc4ccccn4n3)o2)n1 [Example 1382, (S)-(5-(6-methylpyridin-2-yl)-1,3,4-oxadiazol-2-yl)(4-(pyrazolo[1,5-a]pyridin-2-yl)-6,7-dihydro-1H-imidazo[4,5-c]pyridin-5(4H)-yl)methanone]
0.5 to 1 µM		Cn1nc(C(F)F)cc1C(=O)N1CCc2[nH]cnc2[C@H]1c1cc2cccc(C(F)(F)F)n2n1 [Example 1386, (S)-(3-(difluoromethyl)-1-methyl-1H-pyrazol-5-yl)(4-(7-(trifluoromethyl)pyrazolo [1,5-a]pyridin-2-yl)-6,7-dihydro-1H-imidazo[4,5-c]pyridin-5(4H)-yl)methanone]
	< 0.5 µM	Cc1cccc(-c2nnc(C(=O)N3CCc4[nH]cnc4[C@H]3c3cc4cccc(C)n4n3)o2)n1 [Example 1398, (S)-(4-(7-methylpyrazolo [1,5-a]pyridin-2-yl)-6,7-dihydro-1H-imidazo[4,5-c]pyridin-5(4H)-yl)(5-(6-methylpyridin-2-yl)-1,3,4-oxadiazol-2-yl)methanone]
	< 0.5 µM	Cn1cc(-c2nnc(C(=O)N3CCc4[nH]cnc4[C@H]3c3cc4cccc(C(F)F)n4n3)o2)cn1 [Example 1406, (S)-(4-(7-(difluoromethyl)pyrazolo[1,5-a]pyridin-2-yl)-6,7-dihydro-1H-imidazo [4,5-c]pyridin-5(4H)-yl)(5-(1-methyl-1H-pyrazol-4-yl)-1,3,4-oxadiazol-2-yl)methanone]
	< 0.5 µM	O=C(c1nnc(-c2cnccn2)o1)N1CCc2[nH]cnc2[C@H]1c1cc2c(C(F)F)cccn2n1 [Example 1414, (S)-(4-(4-(difluoromethyl)pyrazolo[1,5-a]pyridin-2-yl)-6,7-dihydro-1H-imidazo [4,5-c]pyridin-5(4H)-yl)(5-(pyrazin-2-yl)-1,3,4-oxadiazol-2-yl)methanone]
	1 to 5 µM	O=C(c1nnc(-c2cnccn2)o1)N1CCc2[nH]cnc2[C@@H]1c1cc2c(C(F)F)cccn2n1 [Example 1415, (R)-(4-(4-(difluoromethyl)pyrazolo[1,5-a]pyridin-2-yl)-6,7-dihydro-1H-imidazo [4,5-c]pyridin-5(4H)-yl)(5-(pyrazin-2-yl)-1,3,4-oxadiazol-2-yl)methanone]
	< 0.5 µM	O=C(c1cnn2cc(-c3ccccn3)ccc12)N1CCc2[nH]cnc2[C@H]1c1cc2ccccn2n1 [Example 1416, (S)-(4-(pyrazolo[1,5-a]pyridin-2-yl)-6,7-dihydro-1H-imidazo[4,5-c]pyridin-5(4H)-yl)(6-(pyridin-2-yl)pyrazolo[1,5-a]pyridin-3-yl)methanone]
	0.5 to 1 µM	CC(C)(C)c1nnc(C(=O)N2CCc3[nH]cnc3[C@H]2c2cc3cccc(C(F)F)n3n2)o1 [Example 1419, (S)-(5-(tert-butyl)-1,3,4-oxadiazol-2-yl)(4-(7-(difluoromethyl)pyrazolo [1,5-a]pyridin-2-yl)-6,7-dihydro-1H-imidazo[4,5-c]pyridin-5(4H)-yl)methanone]
